Key:
Format in all cases: cell-based
[1] = tested on: Escherichia coli strain susceptible to ampicillin and ceftriaxone; experiment: Susceptibility testing by MALDI-TOF mass spectra of culture supernatant, Escherichia coli strain susceptible to ampicillin and ceftriaxone; settings: treatment with 8 mg/L; susceptible E. coli strain; FIG. 2
Method: (§1) In a first process step 10, approximately ten colonies of microorganisms of the bacterial type Enterobacteriaceae are added to 1 mL of a liquid Müller-Hinton broth nutrient medium. The turbidity of the microorganisms in the liquid nutrient medium is 0.5 on McFarland standards, corresponding to approximately 1.5×10^8 colony forming units/mL.
(§2) In a second process step 20, 5 μL of 5-25 mM, especially 25 mM of a water-soluble salt of malic acid or ascorbic acid, for example sodium malate as an enhancer for Enterobacteriaceae family bacteria is added into the liquid nutrient medium. The enhancer may also be added into the liquid nutrient medium in solid form.
(§3) In a third process step 30, the microorganisms in the nutrient medium are pre-incubated at 37° C. for 30 minutes.
(§4) In a fourth process step 40, a quantity of a chemical agent or antibiotic equal to the threshold level of the given microorganism according to the Clinical and Laboratory Standards Institute is added to the microorganisms in the liquid nutrient medium.
(§5) In a fifth process step 50, the microorganisms in the nutrient medium are incubated at 37° C. for 60 minutes.
(§6) In a sixth process step 60, the microorganisms are removed from the nutrient medium by centrifugation at 10′000 g or 15′000 g for 5 minutes at room temperature. The remaining supernatant is collected in a new experimental tube. […]

[2] = tested on: Escherichia coli strain resistant to ampicillin and ceftriaxone; experiment: Susceptibility testing by MALDI-TOF mass spectra of culture supernatant, Escherichia coli strain resistant to ampicillin and ceftriaxone; settings: treatment with 8 mg/L; resistant E. coli strain; FIG. 3
Method: as §1, §2, §3, §4, §5, §6

[3] = tested on: Citrobacter ssp strain susceptible to ampicillin and ceftriaxone; experiment: Susceptibility testing by MALDI-TOF mass spectra of culture supernatant, Citrobacter ssp strain susceptible to ampicillin and ceftriaxone; settings: treatment with 8 mg/L, FIG. 4
Method: as §1, §2, §3, §4, §5, §6

Compound	effect on bacteria as seen in mass spectrum of supernatant (protein/peptide signals) [1]	effect on bacteria as seen in mass spectrum of supernatant (protein/peptide signals) [2]	effect on bacteria as seen in mass spectrum of supernatant (protein/peptide signals) [3]
CO/N=C(\C(=O)N[C@@H]1C(=O)N2C(C(=O)O)=C(CSc3nc(=O)c(=O)[nH]n3C)CS[C@H]12)c1csc(N)n1 [ceftriaxone]	has been destroyed	no further significant signal	has been destroyed
CC1(C)S[C@@H]2[C@H](NC(=O)[C@H](N)c3ccccc3)C(=O)N2[C@H]1C(=O)O [ampicillin]	has been destroyed	no further significant signal	has been destroyed

Source: patent publication US9376705B2, “Method for detecting susceptibility of microorganisms to chemical agents” (Idmic SA, priority 2012, dated 2016)
